For 70 compounds, logP results are on record in the SangsterLogP compilation.

A short description of the first data set: method code SF-C, from DOI: 10.1021/ja01077a028.
On to `O=C(O)Cc1ccccc1F`, for which the logP was 1.5.
Consider `N#Cc1cccc(CC(=O)O)c1`, for which the logP worked out at 1.18.
Regarding `O=C(O)COc1ccccc1Cl`, the logP is 2.02.
In turn, `COc1cccc(CC(=O)O)c1` showed a logP of 1.5.
In the case of `O=C(O)Cc1cccc(F)c1`, the log partition coefficient (logP) worked out at 1.65.
On to `O=C(O)Cc1cccc(C(F)(F)F)c1`, for which the logP turned out to be 2.62.
On to `O=C(O)COc1ccccc1[N+](=O)[O-]`, for which the logP is 1.22.
`O=C(O)Cc1cccc(C(=O)O)c1` displayed a logP of 1.14.
The compound `Cc1cccc(CC(=O)O)c1` had a logP of 1.95.
Still for that read-out and setting: the same measure for `O=C(O)COc1ccccc1Br`: 2.1.

Experiment in a further data set: not given
`O=C(O)COc1cccc(NC(=O)c2ccccc2)c1` registered a logP of 1.99.
On to `O=C(O)COc1ccc(N=Nc2ccccc2)cc1`, for which the lipophilicity (logP) was 2.99.
For `O=C(O)Cc1cccc(O)c1`, the logP was 0.85.
The same measure, in the same setting: with `COC(=O)c1cccc(C(=O)O)c1` the figure was 1.83; with `O=C(O)COc1ccc([N+](=O)[O-])cc1`, 1.48.
For `O=C(O)Cc1cccc([N+](=O)[O-])c1`, the logP came to 1.45.
On the same count and under the same terms, with `O=C(O)Cc1cccc(Br)c1` the figure was 2.37.
For the compound `OCc1cccc(Cl)c1`, the logP came out at 1.94.
`COc1ccc(CO)cc1` registered a logP of 1.1.
As to `CCCCc1cccc(OCC(=O)O)c1`, the logP turned out to be 3.18.
As to `O=[N+]([O-])c1cccc(Br)c1`, the logP is 2.64.
For the compound `CCc1cccc(O)c1`, the logP was found to be 2.4.
Same read-out and setting: with `CCC(C)c1ccc(OCC(=O)O)cc1` (stereo not given) the figure was 3.12; with `Nc1cccc(F)c1`, 1.3.
`O=C(O)COc1cccc(SC(F)(F)F)c1` showed a log partition coefficient (logP) of 2.86.
On the same count and under the same terms, with `N#Cc1cccc(O)c1` the figure was 1.7.
On the same count and under the same terms, the same measure for `O=C(O)Cc1cccc(Cl)c1`: 2.09; for `O=C(O)COc1cccc(S(F)(F)(F)(F)F)c1`: 2.78.
Compound `CN(C)c1cccc(O)c1` showed a logP of 1.56.
Compound `O=C(O)COc1cccc(OC(F)(F)F)c1` gave a logP of 2.48.
On to `O=C(O)COc1ccccc1I`, for which the lipophilicity (logP) stood at 2.19.
In turn, `O=C(O)COc1cccc(-c2ccccc2)c1` gave a logP of 3.18.
As for `O=C(O)COc1ccc(C2CCCCC2)cc1`, the logP is 3.79.
`Nc1cccc(CO)c1` had a logP of -0.05.
Take `O=C(O)COc1ccc(O)cc1`: the logP was determined as 0.65.
`O=C(O)COc1cccc(F)c1`: the logP stood at 1.48.
Consider `Oc1ccccc1F`, for which the logP was determined as 1.71.
As to `Cc1cccc(CO)c1`, the logP was 1.6.
With `O=[N+]([O-])c1cccc(CO)c1`, the logP was 1.21.
`O=C(O)COc1cccc(S(=O)(=O)C(F)(F)F)c1` registered a lipophilicity (logP) of 2.19.
The compound `NC(=O)Nc1cccc(OCC(=O)O)c1` came in with a logP of 0.26.
Take `CC(=O)c1cccc(O)c1`: the log partition coefficient (logP) is 1.39.
On to `O=C(O)c1cccc(C(=O)O)c1`, for which the logP is 1.66.
As for `CC(C)(C)c1cccc(OCC(=O)O)c1`, the log partition coefficient (logP) was 2.96.
With `CS(=O)(=O)c1cccc(CC(=O)O)c1`, the logP was 0.06.
For the compound `O=C(O)COc1ccc2c(c1)CCC2`, the logP came to 2.33.
`N#Cc1cccc(C(=O)O)c1` gave a logP of 1.48.
For the compound `O=C(O)COc1ccc(C2CCCC2)cc1`, the logP came out at 3.41.
The compound `O=C(O)COc1ccc2c(c1)CCCC2` showed a logP of 2.67.
The compound `CC(C)c1cccc(OCC(=O)O)c1` had a logP of 2.59.
The compound `O=C(O)COc1cccc([N+](=O)[O-])c1` displayed a logP of 1.37.
Same read-out and setting: with `O=C(O)c1cccc(C(F)(F)F)c1` the figure was 2.95; with `O=C(O)c1ccc(Br)cc1`, 2.86; with `CC(=O)Oc1ccccc1`, 1.49.
Regarding `CC(C)c1ccc(OCC(=O)O)cc1`, the logP was 2.69.
Regarding `O=C(O)COc1cccc(C(=O)O)c1`, the logP was determined as 1.11.
In turn, `O=C(O)COc1cccc(Cl)c1` returned a logP of 2.03.
On to `O=C(O)Cc1ccc(Br)cc1`, for which the logP stood at 2.31.
For `CC(=O)Nc1cccc(OCC(=O)O)c1`, the logP turned out to be 0.48.
On to `Oc1cccc(I)c1`, for which the log partition coefficient (logP) came to 2.93.
`CCCc1cccc(OCC(=O)O)c1` registered a lipophilicity (logP) of 2.71.
Regarding `CC(=O)c1cccc([N+](=O)[O-])c1`, the logP came to 1.42.
As for `Oc1ccccc1Br`, the logP stood at 2.35.
`O=C(O)COc1cccc(O)c1`: the lipophilicity (logP) came to 0.76.
The compound `O=C(O)COc1cccc(I)c1` returned a logP of 2.44.
Turning to `CSc1cccc(OCC(=O)O)c1`, the logP amounted to 1.9.
Regarding `CC(=O)c1ccccc1OCC(=O)O`, the logP is 1.25.
Regarding `COc1ccc(OCC(=O)O)cc1`, the logP came out at 1.23.
Compound `COc1cccc(OCC(=O)O)c1` displayed a logP of 1.38.
`CS(=O)(=O)c1cccc(OCC(=O)O)c1`: the logP came out at 0.01.

Broadly, the logP is the decadic logarithm of the partition coefficient of the neutral form, usually between octanol and water. Read a low logP as lower lipophilicity.
